This note sets out measurements from article PMC11702208 (RSC Advances, 2025).

Where “and” joins values, the source holds several entries; their conditions need not be identical. Identical values can stand only once.

The assay relates to MOLT4 cells. The assay can be described thus: Annexin V-FITC/PI apoptosis assay. The class given is cell-based.

As to `NS(=O)(=O)c1ccc(Cn2c(SCC(=O)NN=Cc3ccccc3O)nc3ccccc3c2=O)cc1` [Compound 6, 4-((2-((2-(2-(2-Hydroxybenzylidene)hydrazineyl)-2-oxoethyl)thio)-4-oxoquinazolin-3(4H)-yl)methyl)benzenesulfonamide], the “Apoptosis Early” value was 19.2% and 19.22%; the “Apoptosis Total” value is 35.06%; the Necrosis is 3.23%.
